Laboratory results from ChEMBL document CHEMBL1139978, “Synthesis and radiopharmacological characterization of [11C]AL-438 as a nonsteroidal ligand for imaging brain glucocorticoid receptors” (Bioorg Med Chem Lett, 2007).

Tests used:
[1] = test system: Pituitary gland; test: Biodistribution in corticosterone pretreated Wistar rat pituitary at 20 MBq, iv after 5 mins; assay type: ADME, organism-based; details: in vivo
[2] = test system: Pituitary gland; test: Biodistribution in corticosterone pretreated Wistar rat pituitary at 20 MBq, iv after 60 mins; assay type: ADME, organism-based; details: in vivo, 1 h
[3] = test system: Adrenal; test: Biodistribution in Wistar rat adrenal at 20 MBq, iv after 5 mins; assay type: ADME, organism-based, Adrenal tissue; details: in vivo
[4] = test system: Adrenal; test: Biodistribution in Wistar rat adrenal at 20 MBq, iv after 60 mins; assay type: ADME, organism-based, Adrenal tissue; details: in vivo, 1 h
[5] = test system: Adrenal; test: Biodistribution in corticosterone pretreated Wistar rat adrenal at 20 MBq, iv after 5 mins; assay type: ADME, organism-based, Adrenal tissue; details: in vivo
[6] = test system: Adrenal; test: Biodistribution in corticosterone pretreated Wistar rat adrenal at 20 MBq, iv after 60 mins; assay type: ADME, organism-based, Adrenal tissue; details: in vivo, 1 h
[7] = test system: Pancreas; test: Biodistribution in Wistar rat pancreas at 20 MBq, iv after 5 mins; assay type: ADME, organism-based; details: in vivo
[8] = test system: Pancreas; test: Biodistribution in Wistar rat pancreas at 20 MBq, iv after 60 mins; assay type: ADME, organism-based; details: in vivo, 1 h
[9] = test system: Blood; test: Biodistribution in Wistar rat blood at 20 MBq, iv after 5 mins; assay type: ADME, organism-based; details: in vivo
[10] = test system: Blood; test: Biodistribution in Wistar rat blood at 20 MBq, iv after 60 mins; assay type: ADME, organism-based; details: in vivo, 1 h
[11] = test system: Blood; test: Biodistribution in corticosterone pretreated Wistar rat blood at 20 MBq, iv after 5 mins; assay type: ADME, organism-based; details: in vivo
[12] = test system: Blood; test: Biodistribution in corticosterone pretreated Wistar rat blood at 20 MBq, iv after 60 mins; assay type: ADME, organism-based; details: in vivo, 1 h
[13] = test system: Rattus norvegicus; test: Biodistribution in Wistar rat rest of brain at 20 MBq, iv after 5 mins; assay type: ADME, organism-based; details: in vivo
[14] = test system: Rattus norvegicus; test: Biodistribution in Wistar rat rest of brain at 20 MBq, iv after 60 mins; assay type: ADME, organism-based; details: in vivo, 1 h
[15] = test system: Rattus norvegicus; test: Biodistribution in corticosterone pretreated Wistar rat rest of brain at 20 MBq, iv after 5 mins; assay type: ADME, organism-based; details: in vivo
[16] = test system: Rattus norvegicus; test: Biodistribution in corticosterone pretreated Wistar rat rest of brain at 20 MBq, iv after 60 mins; assay type: ADME, organism-based; details: in vivo, 1 h
[17] = test system: Cortex; test: Biodistribution in Wistar rat cortex at 20 MBq, iv after 5 mins; assay type: ADME, organism-based; details: in vivo
[18] = test system: Cortex; test: Biodistribution in Wistar rat cortex at 20 MBq, iv after 60 mins; assay type: ADME, organism-based; details: in vivo, 1 h
[19] = test system: Cortex; test: Biodistribution in corticosterone pretreated Wistar rat cortex at 20 MBq, iv after 5 mins; assay type: ADME, organism-based; details: in vivo
[20] = test system: Cortex; test: Biodistribution in corticosterone pretreated Wistar rat cortex at 20 MBq, iv after 60 mins; assay type: ADME, organism-based; details: in vivo, 1 h
[21] = test system: Cerebellum; test: Biodistribution in Wistar rat cerebellum at 20 MBq, iv after 5 mins; assay type: ADME, organism-based; details: in vivo
[22] = test system: Cerebellum; test: Biodistribution in Wistar rat cerebellum at 20 MBq, iv after 60 mins; assay type: ADME, organism-based; details: in vivo, 1 h
[23] = test system: Cerebellum; test: Biodistribution in corticosterone pretreated Wistar rat cerebellum at 20 MBq, iv after 5 mins; assay type: ADME, organism-based; details: in vivo
[24] = test system: Cerebellum; test: Biodistribution in corticosterone pretreated Wistar rat cerebellum at 20 MBq, iv after 60 mins; assay type: ADME, organism-based; details: in vivo, 1 h
[25] = test system: Hippocampus; test: Biodistribution in Wistar rat hippocampus at 20 MBq, iv after 5 mins; assay type: ADME, organism-based; details: in vivo
[26] = test system: Hippocampus; test: Biodistribution in Wistar rat hippocampus at 20 MBq, iv after 60 mins; assay type: ADME, organism-based; details: in vivo, 1 h
[27] = test system: Hippocampus; test: Biodistribution in corticosterone pretreated Wistar rat hippocampus at 20 MBq, iv after 5 mins; assay type: ADME, organism-based; details: in vivo
[28] = test system: Hippocampus; test: Biodistribution in corticosterone pretreated Wistar rat hippocampus at 20 MBq, iv after 60 mins; assay type: ADME, organism-based; details: in vivo, 1 h
[29] = test system: Pituitary gland; test: Biodistribution in Wistar rat pituitary at 20 MBq, iv after 5 mins; assay type: ADME, organism-based; details: in vivo
[30] = test system: Pituitary gland; test: Biodistribution in Wistar rat pituitary at 20 MBq, iv after 60 mins; assay type: ADME, organism-based; details: in vivo, 1 h
[31] = test system: Pancreas; test: Biodistribution in corticosterone pretreated Wistar rat pancreas at 20 MBq, iv after 5 mins; assay type: ADME, organism-based; details: in vivo
[32] = test system: Pancreas; test: Biodistribution in corticosterone pretreated Wistar rat pancreas at 20 MBq, iv after60 mins; assay type: ADME, organism-based; details: in vivo, 1 h
[33] = test system: Spleen; test: Biodistribution in Wistar rat spleen at 20 MBq, iv after 5 mins; assay type: ADME, organism-based; details: in vivo
[34] = test system: Spleen; test: Biodistribution in Wistar rat spleen at 20 MBq, iv after 60 mins; assay type: ADME, organism-based; details: in vivo, 1 h
[35] = test system: Spleen; test: Biodistribution in corticosterone pretreated Wistar rat spleen at 20 MBq, iv after 5 mins; assay type: ADME, organism-based; details: in vivo
[36] = test system: Spleen; test: Biodistribution in corticosterone pretreated Wistar rat spleen at 20 MBq, iv after 60 mins; assay type: ADME, organism-based; details: in vivo, 1 h
[37] = test system: Kidney; test: Biodistribution in Wistar rat kidney at 20 MBq, iv after 5 mins; assay type: ADME, organism-based; details: in vivo
[38] = test system: Kidney; test: Biodistribution in Wistar rat kidney at 20 MBq, iv after 60 mins; assay type: ADME, organism-based; details: in vivo, 1 h
[39] = test system: Kidney; test: Biodistribution in corticosterone pretreated Wistar rat kidney at 20 MBq, iv after 5 mins; assay type: ADME, organism-based; details: in vivo
[40] = test system: Kidney; test: Biodistribution in corticosterone pretreated Wistar rat kidney at 20 MBq, iv after 60 mins; assay type: ADME, organism-based; details: in vivo, 1 h

SMILES: C=CCC1Oc2cccc(O[11CH3])c2-c2ccc3c(c21)C(C)=CC(C)(C)N3 (stereo not given)
- Drug uptake [1]: 2.45 % ID/g
- Drug uptake [2]: 1.76 % ID/g
- Drug uptake [3]: 7.63 % ID/g
- Drug uptake [4]: 4.4 % ID/g
- Drug uptake [5]: 8.68 % ID/g
- Drug uptake [6]: 3.8 % ID/g
- Drug uptake [7]: 2.79 % ID/g
- Drug uptake [8]: 1.99 % ID/g
- Drug uptake [9]: 0.52 % ID/g
- Drug uptake [10]: 0.6 % ID/g
- Drug uptake [11]: 0.52 % ID/g
- Drug uptake [12]: 0.74 % ID/g
- Drug uptake [13]: 1.52 % ID/g
- Drug uptake [14]: 0.56 % ID/g
- Drug uptake [15]: 1.46 % ID/g
- Drug uptake [16]: 0.61 % ID/g
- Drug uptake [17]: 1.67 % ID/g
- Drug uptake [18]: 0.6 % ID/g
- Drug uptake [19]: 1.55 % ID/g
- Drug uptake [20]: 0.74 % ID/g
- Drug uptake [21]: 1.39 % ID/g
- Drug uptake [22]: 0.53 % ID/g
- Drug uptake [23]: 1.46 % ID/g
- Drug uptake [24]: 0.64 % ID/g
- Drug uptake [25]: 1.3 % ID/g
- Drug uptake [26]: 0.61 % ID/g
- Drug uptake [27]: 1.35 % ID/g
- Drug uptake [28]: 0.68 % ID/g
- Drug uptake [29]: 2.49 % ID/g
- Drug uptake [30]: 1.77 % ID/g
- Drug uptake [31]: 2.81 % ID/g
- Drug uptake [32]: 1.43 % ID/g
- Drug uptake [33]: 0.97 % ID/g
- Drug uptake [34]: 1.06 % ID/g
- Drug uptake [35]: 1.21 % ID/g
- Drug uptake [36]: 0.91 % ID/g
- Drug uptake [37]: 1.72 % ID/g
- Drug uptake [38]: 1.19 % ID/g
- Drug uptake [39]: 2.06 % ID/g
- Drug uptake [40]: 1.13 % ID/g
